Assays:
human TrkA [1] = target: T1, human TrkA (Homo sapiens, UniProt P04629); experiment: Test Example 2-2: Human TrkA Inhibition Assay; format: biochemical
T1 construct: purchased Lifetechnologies PV3144
Method in brief: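 Kinase (1 nmol/L) pre-incubated 15 min at room temperature with compound, then FL-peptide 27 (1.5 μmol/L) and ATP ([…]) added for 120 min at 37 °C; EDTA stop. Phosphorylated and unphosphorylated substrate separated by mobility-shift readout; IC50 by logistic regression over 10 concentrations.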

[2] = target: T2, human ether-a-go-go related gene (hERG) channel (Homo sapiens, UniProt Q12809); experiment: Test Example 3: hERG Test (whole cell patch clamp, IKr); format: cell-based; settings: CHO cells expressing hERG
T2 construct: expressed in transfected cells; host or cells: CHO cells
T2 sequence (Q12809 whole entry): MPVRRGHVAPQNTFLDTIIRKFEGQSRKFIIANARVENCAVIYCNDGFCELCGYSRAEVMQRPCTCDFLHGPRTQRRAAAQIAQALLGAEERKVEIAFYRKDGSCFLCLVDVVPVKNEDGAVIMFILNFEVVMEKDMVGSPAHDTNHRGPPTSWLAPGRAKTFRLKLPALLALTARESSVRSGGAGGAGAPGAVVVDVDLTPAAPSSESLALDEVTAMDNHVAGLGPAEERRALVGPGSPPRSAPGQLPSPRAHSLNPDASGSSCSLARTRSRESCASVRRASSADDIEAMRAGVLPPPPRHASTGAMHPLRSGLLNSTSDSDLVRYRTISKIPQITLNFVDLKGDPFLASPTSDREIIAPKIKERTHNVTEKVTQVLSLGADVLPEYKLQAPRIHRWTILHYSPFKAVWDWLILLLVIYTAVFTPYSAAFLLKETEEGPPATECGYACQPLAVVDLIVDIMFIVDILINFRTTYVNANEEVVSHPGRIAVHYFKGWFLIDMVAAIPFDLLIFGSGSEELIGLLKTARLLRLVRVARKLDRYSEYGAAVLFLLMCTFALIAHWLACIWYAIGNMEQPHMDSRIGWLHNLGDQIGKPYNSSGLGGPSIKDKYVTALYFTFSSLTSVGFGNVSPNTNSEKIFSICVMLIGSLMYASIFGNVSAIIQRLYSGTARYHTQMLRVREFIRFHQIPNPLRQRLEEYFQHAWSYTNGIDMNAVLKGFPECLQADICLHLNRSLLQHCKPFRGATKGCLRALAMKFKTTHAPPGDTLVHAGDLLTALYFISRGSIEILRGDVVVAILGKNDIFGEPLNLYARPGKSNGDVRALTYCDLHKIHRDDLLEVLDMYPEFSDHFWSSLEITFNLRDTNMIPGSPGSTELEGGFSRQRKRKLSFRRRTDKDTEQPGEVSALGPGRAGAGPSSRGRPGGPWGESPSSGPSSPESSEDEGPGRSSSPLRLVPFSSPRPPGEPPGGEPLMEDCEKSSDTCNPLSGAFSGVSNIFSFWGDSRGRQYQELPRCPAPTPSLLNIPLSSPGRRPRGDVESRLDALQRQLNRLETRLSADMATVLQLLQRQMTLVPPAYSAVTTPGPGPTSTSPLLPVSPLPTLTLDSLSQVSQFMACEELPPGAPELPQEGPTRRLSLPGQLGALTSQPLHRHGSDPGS
From the text: For the purpose of assessing risk of an electrocardiogram QT interval prolongation of the compound of the present invention, effects of the compound of the present invention on delayed rectifier K current (I r), which plays an important role in the ventricular repolarization process, was studied using CHO cells expressing human ether-a-go-go related gene (hERG) channel.
After a cell was retained at a membrane potential of −80 mV by whole cell patch clamp method using an automated patch clamp system (QPatch; Sophion Bioscience A/S), IKr induced by leak potential at −50 mV, and then depolarization pulse stimulation at +20 mV for 2 seconds and, further, repolarization pulse stimulation at −50 mV for 2 seconds, was recorded. After the generated current was stabilized, extracellular solution (NaCl: 145 mmol/L, KCl: 4 mmol/L, CaCl2: 2 mmol/L, MgCl2: 1 mmol/L, glucose: 10 mmol/L, HEPES (4-(2-hydroxyethyl)-1-piperazineethanesulfonic acid): 10 mmol/L, pH7.4), in which the compound of the present invention had been dissolved at an objective concentration, was applied to the cell at room temperature for 10 minutes. From the recording IKr, an absolute value of the tail peak current was measured based on the current value at the resting membrane potential using analysis software (Falster Patch; Sophion Bioscience A/S). Further, the % inhibition relative to the tail peak current before application of the compound of the present invention was calculated, and compared with the vehicle-applied group (0.1% dimethyl sulfoxide solution) to assess influence of the compound of the present invention on IKr.

[3] = Test Example 9-2: Metabolism Stability Test; format: in vitro ADME; settings: human liver microsomes 0.5 mg protein/mL, 30 minutes, 37° C., 1 mmol/L NADPH
Procedure: (§1) Using commercially available pooled human hepatic microsomes, a compound of the present invention was reacted for a constant time, and a remaining rate was calculated by comparing a reacted sample and an unreacted sample, thereby, a degree of metabolism in liver was assessed.
(§2) A reaction was performed (oxidative reaction) at 37° C. for 0 minute or 30 minutes in the presence of 1 mmol/L NADPH in 0.2 mL of a buffer (50 mmol/L Tris-HCl pH 7.4, 150 mmol/L potassium chloride, 10 mmol/L magnesium chloride) containing 0.5 mg protein/mL of human liver microsomes. After the reaction, 50 μL of the reaction solution was added to 100 μL of a methanol/acetonitrile=1/1 (v/v), mixed and centrifuged at 3000 rpm for 15 minutes. The compound of the present invention in the supernatant was quantified by LC/MS/MS or Solid Phase Extraction (SPE)/MS, and a remaining amount of the compound of the present invention after the reaction was calculated, letting a compound amount at 0 minute reaction time to be 100%.

human TrkA [4] = target: T1, human TrkA; experiment: Test Example 2: Human TrkA Inhibition Assay; format: biochemical; settings: Test Example 2
Method in brief: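 Mobility-shift kinase assay: 90 min reaction at room temperature, stopped with EDTA buffer; phosphorylated and non-phosphorylated fluorescent substrate measured, conversion ratio calculated. Inhibition % normalised between DMSO-only wells and no-TrkA wells.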

[5] = Test Example 9: Metabolism Stability Test; format: in vitro ADME; settings: human liver microsomes 0.5 mg protein/mL, 30 minutes, 37° C., 1 mmol/L NADPH
Procedure: as §1
as §2, with “LC/MS/MS,” for “LC/MS/MS or Solid Phase Extraction (SPE)/MS,”

[6] = human TrkA 1 nmol/L, 120 min at 37° C., read-out: TrkA inhibition IC50
[7] = human TrkA inhibition, class symbols A/B/C, read-out: IC50_nM
[8] = human TrkA 2.5 nmol/L, ATP 500 μmol/L, 90 min at room temperature, read-out: TrkA inhibitory activity IC50

T1 sequence (P04629 33-796): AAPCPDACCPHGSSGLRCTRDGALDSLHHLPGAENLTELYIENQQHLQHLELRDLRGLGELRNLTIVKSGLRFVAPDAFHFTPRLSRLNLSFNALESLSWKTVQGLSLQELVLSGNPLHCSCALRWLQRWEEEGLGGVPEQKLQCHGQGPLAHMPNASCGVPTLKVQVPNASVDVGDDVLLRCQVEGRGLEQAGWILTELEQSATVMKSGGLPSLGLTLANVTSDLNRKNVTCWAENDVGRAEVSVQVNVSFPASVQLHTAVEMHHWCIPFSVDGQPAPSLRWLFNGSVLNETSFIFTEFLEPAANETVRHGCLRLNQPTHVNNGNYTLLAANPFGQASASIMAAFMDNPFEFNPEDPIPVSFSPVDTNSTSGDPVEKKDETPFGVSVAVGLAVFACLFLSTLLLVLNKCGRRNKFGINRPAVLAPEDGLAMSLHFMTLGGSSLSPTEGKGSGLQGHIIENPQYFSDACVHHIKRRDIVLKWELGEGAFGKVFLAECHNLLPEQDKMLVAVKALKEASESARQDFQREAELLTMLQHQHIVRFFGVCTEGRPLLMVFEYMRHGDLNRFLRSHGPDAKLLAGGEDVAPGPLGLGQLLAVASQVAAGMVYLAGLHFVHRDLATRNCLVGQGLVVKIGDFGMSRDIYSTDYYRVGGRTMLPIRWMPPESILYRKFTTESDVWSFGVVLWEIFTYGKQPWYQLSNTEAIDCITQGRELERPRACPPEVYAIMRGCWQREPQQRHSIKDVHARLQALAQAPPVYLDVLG

IC50 (human TrkA [1]; [6]) [nM]	SMILES	% inhibition of IKr (hERG tail peak current) [2] [%]	other results
4.8	COCC[C@@H]1C[C@@H](NC(=O)Nc2c(C)c(-c3cnn(C)c3)nn2-c2ccccc2)[C@H](c2ccnc(F)c2)C1 [Compound I-262]	20.1	
160	COCCN1C[C@@H](NC(=O)Nc2c(C)c(-c3cnn(C)c3)nn2-c2ccccc2)[C@H](c2cccc(O)c2)C1 (racemic) [Compound I-96]		remaining amount of compound after reaction [3]: 90%; IC50 (human TrkA [4]; [8]): 29 nM
50	COCC[N+]1([O-])C[C@@H](NC(=O)Nc2c(C)c(-c3cnn(C)c3)nn2-c2ccccc2)[C@H](c2ccc(F)c(F)c2)C1 (some centres unmarked) [Compound I-3]	20.4	IC50 (human TrkA [4]; [8]): 65 nM
1.8	Cc1c(-c2cnn(C)c2)nn(-c2ccccc2)c1NC(=O)N[C@@H]1CN(Cc2ccco2)C[C@H]1c1ccc(F)c(F)c1 [Compound I-86]		IC50 (human TrkA [4]; [8]): 1.1 nM

Continued, compound first:

SMILES	IC50 (human TrkA [1]; [6]) [nM]	% inhibition of IKr (hERG tail peak current) [2] [%]	other results
COCCN1C[C@@H](NC(=O)Nc2c(C)c(-c3cnn(C)c3)nn2-c2ccccc2)[C@H](c2ccc3c(c2)NC(=O)CO3)C1 (racemic) [Compound I-136]			remaining amount of compound after reaction [3]: 104%; IC50 (human TrkA [4]; [7]): 100 to 1000 nM
C=C1C[C@@H](NC(=O)Nc2c(C)c(-c3cnn(C)c3)nn2-c2ccccc2)[C@H](c2ccccc2)C1 (racemic) [Compound I-29]		21.2	IC50 (human TrkA [4]; [7]): < 100 nM
COCC(=O)N1C[C@@H](NC(=O)Nc2c(C)c(-c3cnn(C)c3)nn2-c2ccccc2)[C@H](c2ccc(F)c(F)c2)C1 [Compound I-026]		3.3	
COCC[C@@H]1C[C@@H](NC(=O)Nc2c(C)c(-c3cnn(C)c3)nn2-c2ccccc2)[C@H](c2ccccc2)C1 [Compound I-084]		10.0	
COCCC1C[C@@H](NC(=O)Nc2c(C)c(-c3cnn(C)c3)nn2-c2ccccc2)[C@H](c2ccc(O)c(O)c2)C1 (some centres unmarked) [Compound I-221]		13.2	IC50 (human TrkA [1]; [7]): < 100 nM
COCCN1C[C@@H](NC(=O)Nc2c(C)c(-c3cnn(C)c3)nn2-c2ccccc2)[C@H](c2ccnc(C#N)c2)C1 (racemic) [Compound I-180]			IC50 (human TrkA [1]; [7]): 100 to 1000 nM; remaining amount of compound after reaction [5]: 90%
COCC[C@@H]1C[C@@H](NC(=O)Nc2c(C)c(-c3cnc(C)nc3)nn2-c2ccccc2)[C@H](c2ccc(F)c(F)c2)N1C [Compound I-255]	1.1	10.2	
COCC[C@@H]1C[C@@H](NC(=O)Nc2c(C)c(-c3cnn(C)c3)nn2-c2ccccc2)[C@H](c2ccc(F)c(F)c2)N1C [Compound I-214]		20.2	IC50 (human TrkA [1]; [7]): < 100 nM
COCCN1C[C@@H](NC(=O)Nc2c(C)c(-c3cnn(C)c3)nn2-c2ccccc2)[C@H](c2ccc3ncsc3c2)C1 (racemic) [Compound I-107]			remaining amount of compound after reaction [3]: 92%; IC50 (human TrkA [4]; [7]): < 100 nM

— patent US10532985B2, “Heterocycle and carbocycle derivatives having TRKA inhibitory activity” (Shionogi & Co., Ltd., priority 2014, dated 2020)
